{"source": "patent US20130131116A1", "about": "“PEST CONTROL COMPOSITION” (SUMITOMO CHEMICAL COMPANY, LIMITED, priority 2010, published 2013)"}
{"system": "Haemaphysalis longicornis", "experiment": "Test Example 3: Insecticidal Test on Haemaphysalis longicornis By Treating Glass Surface", "assay_type": "in vivo", "details": "Haemaphysalis longicornis, 48 h, read-out: Mortality Rate (%)", "description": "(§1) Acetone solutions were each prepared for the present hydrazide compounds and the present ester compounds. To inner walls of a glass screw tube and lid (NO. 5, manufactured by Maruemu Corporation), 0.2 mL of the acetone solution was uniformly applied. […] The lid is closed tightly, and the number of dead ticks is examined after 2 days.", "units": {"mortality at 0.8 mg/m2": "%", "mortality at 0.032 mg/m2": "%", "mortality at 0.16 mg/m2": "%", "mortality at 0.0064 mg/m2": "%"}}
{"compound": "CC(C)=CC1(C=C(Cl)Cl)C(C(=O)OCc2cccc(Oc3ccccc3)c2)C1(C)C", "note": "(stereo not drawn) [Present ester compound (2), 3-phenoxybenzyl 3-(2,2-dichlorovinyl)-2,2-dimethyl-3-(2-methylprop-1-enyl)cyclopropanecarboxylate, reference compound]", "mortality at 0.8 mg/m2": 13}
{"compound": "O=C(CCC(F)(F)F)NNc1cc(C2=NOC(c3cc(Cl)cc(Cl)c3)(C(F)(F)F)C2)ccc1Cl", "note": "(stereo not drawn) [Present hydrazide compound (17), N′-{5-[5-(3,5-dichlorophenyl)-5-trifluoromethyl-4,5-dihydroisoxazol-3-yl]-2-chlorophenyl}-4,4,4-trifluorobutyrohydrazide]", "mortality at 0.032 mg/m2": 3.3, "mortality at 0.16 mg/m2": 40}
{"compound": "CN(NC(=O)CCC(F)(F)F)c1cc(C2=NOC(c3cc(Cl)cc(Cl)c3)(C(F)(F)F)C2)ccc1Cl", "note": "(stereo not drawn) [Present hydrazide compound (31), N′-methyl-N′-{2-chloro-5-[5-(3,5-dichlorophenyl)-5-trifluoromethyl-4,5-dihydroisoxazol-3-yl]phenyl}-4,4,4-trifluorobutyrohydrazide]", "mortality at 0.0064 mg/m2": 3.3}
{"system": "Haemaphysalis longicornis", "experiment": "Test Example 3: Insecticidal Test on Haemaphysalis longicornis By Treating Glass Surface", "assay_type": "in vivo", "details": "ester compound alone 0.8 mg/m^2, glass surface, after 2 days", "description": "as §1", "units": {"Mortality Rate (%)": "%"}}
{"compound": "CC(C)=C[C@@H]1[C@@H](C(=O)O[C@H](C#N)c2cccc(Oc3ccccc3)c2)C1(C)C", "note": "(relative stereo) [Present ester compound (3), (1S)-α-cyano-3-phenoxybenzyl (1R)-trans-2,2-dimethyl-3-(2-methylprop-1-enyl)cyclopropanecarboxylate, reference compound]", "Mortality Rate (%)": 10}
{"system": "Haemaphysalis longicornis", "experiment": "Test Example 3: Insecticidal Test on Haemaphysalis longicornis By Treating Glass Surface", "assay_type": "in vivo", "details": "ester compound alone 4 mg/m^2, glass surface, after 2 days", "description": "as §1", "units": {"Mortality Rate (%)": "%"}}
{"compound": "3-phenoxybenzyl (1R)-cis/trans-2,2-dimethyl-3-(2-methylprop-1-enyl)cyclopropanecarboxylate [Present ester compound (1), reference compound]", "Mortality Rate (%)": 15}
{"system": "not given", "experiment": "not given", "details": "not given", "units": {"melting point": "°C"}}
{"compound": "CC(C)(C)OC(=O)N(NC(=O)C1CC1)c1cc(C2=NOC(c3cc(Cl)cc(Cl)c3)(C(F)(F)F)C2)ccc1Cl", "note": "(stereo not drawn)", "melting point": 180}
{"compound": "O=C(NNc1cc(C2=NOC(c3cc(Cl)cc(Cl)c3)(C(F)(F)F)C2)ccc1Cl)c1ccccc1", "note": "(stereo not drawn)", "melting point": 105}
{"compound": "CC(=O)NNc1cc(C2=NOC(c3cc(Cl)cc(Cl)c3)(C(F)(F)F)C2)ccc1Cl", "note": "(stereo not drawn)", "melting point": 94}
{"compound": "CCC(=O)NNc1cc(C2=NOC(c3cc(Cl)cc(Cl)c3)(C(F)(F)F)C2)ccc1Cl", "note": "(stereo not drawn)", "melting point": 92}
{"compound": "O=C(NNc1cc(C2=NOC(c3cc(Cl)cc(Cl)c3)(C(F)(F)F)C2)ccc1Cl)C(F)(F)F", "note": "(stereo not drawn)", "melting point": 64}
{"compound": "O=C(NNc1cc(C2=NOC(c3cc(Cl)cc(Cl)c3)(C(F)(F)F)C2)ccc1Cl)c1cccnc1", "note": "(stereo not drawn)", "melting point": 205}
{"compound": "O=C(NNc1cc(C2=NOC(c3cc(Cl)cc(Cl)c3)(C(F)(F)F)C2)ccc1Cl)c1ccncc1", "note": "(stereo not drawn)", "melting point": 115}
{"compound": "CN(C)C(=O)NNc1cc(C2=NOC(c3cc(Cl)cc(Cl)c3)(C(F)(F)F)C2)ccc1Cl", "note": "(stereo not drawn)", "melting point": 212}
{"compound": "C=CC(=O)NN(C(=O)OC(C)(C)C)c1cc(C2=NOC(c3cc(Cl)cc(Cl)c3)(C(F)(F)F)C2)ccc1Cl", "note": "(stereo not drawn)", "melting point": 119}
{"compound": "C=CC(=O)NNc1cc(C2=NOC(c3cc(Cl)cc(Cl)c3)(C(F)(F)F)C2)ccc1Cl", "note": "(stereo not drawn)", "melting point": 90}
{"compound": "CC(=O)NNc1cccc(C2=NOC(c3cc(Cl)cc(Cl)c3)(C(F)(F)F)C2)c1", "note": "(stereo not drawn)", "melting point": 100}
{"compound": "CC(=O)N(C)N(C(=O)OC(C)(C)C)c1cccc(C2=NOC(c3cc(Cl)cc(Cl)c3)(C(F)(F)F)C2)c1", "note": "(stereo not drawn)", "melting point": 79}
{"compound": "O=C(NNc1cc(C2=NOC(c3cc(Cl)cc(Cl)c3)(C(F)(F)F)C2)ccc1Cl)c1ccc([N+](=O)[O-])cc1", "note": "(stereo not drawn)", "melting point": 231}
{"compound": "CCCC(=O)NNc1cc(C2=NOC(c3cc(Cl)cc(Cl)c3)(C(F)(F)F)C2)ccc1Cl", "note": "(stereo not drawn)", "melting point": 82}
{"compound": "O=C(/C=C/c1ccccc1)NNc1cc(C2=NOC(c3cc(Cl)cc(Cl)c3)(C(F)(F)F)C2)ccc1Cl", "note": "(stereo not drawn)", "melting point": 205}
{"compound": "COc1ccc(C(=O)NNc2cc(C3=NOC(c4cc(Cl)cc(Cl)c4)(C(F)(F)F)C3)ccc2Cl)cc1", "note": "(stereo not drawn)", "melting point": 131}
{"compound": "CC(=O)N(NC(=O)C1CC1)c1cc(C2=NOC(c3cc(Cl)cc(Cl)c3)(C(F)(F)F)C2)ccc1Cl", "note": "(stereo not drawn)", "melting point": 160}
{"compound": "CC(=O)N(C)Nc1cccc(C2=NOC(c3cc(Cl)cc(Cl)c3)(C(F)(F)F)C2)c1", "note": "(stereo not drawn)", "melting point": 88}
{"compound": "COCC(=O)NN(C(C)=O)c1cc(C2=NOC(c3cc(Cl)cc(Cl)c3)(C(F)(F)F)C2)ccc1Cl", "note": "(stereo not drawn)", "melting point": 164}
{"compound": "CC(=O)NN(C(C)=O)c1cc(C2=NOC(c3cc(Cl)cc(Cl)c3)(C(F)(F)F)C2)ccc1Cl", "note": "(stereo not drawn)", "melting point": 108}
{"compound": "CC(=O)N(NC(=O)c1ccccc1)c1cc(C2=NOC(c3cc(Cl)cc(Cl)c3)(C(F)(F)F)C2)ccc1Cl", "note": "(stereo not drawn)", "melting point": 107}
{"compound": "CC(=O)NN(C(=O)c1ccccc1)c1cc(C2=NOC(c3cc(Cl)cc(Cl)c3)(C(F)(F)F)C2)ccc1Cl", "note": "(stereo not drawn)", "melting point": 142}
{"compound": "O=C(NN(C(=O)c1ccccc1)c1cc(C2=NOC(c3cc(Cl)cc(Cl)c3)(C(F)(F)F)C2)ccc1Cl)C1CC1", "note": "(stereo not drawn)", "melting point": 172}
{"compound": "O=C(CCC(F)(F)F)NN(C(=O)c1ccccc1)c1cc(C2=NOC(c3cc(Cl)cc(Cl)c3)(C(F)(F)F)C2)ccc1Cl", "note": "(stereo not drawn)", "melting point": 157}
{"compound": "O=C(NNc1cc(C2=NOC(c3cc(Cl)cc(Cl)c3)(C(F)(F)F)C2)ccc1Cl)Nc1ccccc1", "note": "(stereo not drawn)", "melting point": 131}
{"compound": "O=C(NNc1cc(C2=NOC(c3cc(Cl)cc(Cl)c3)(C(F)(F)F)C2)ccc1Cl)Nc1ccc([N+](=O)[O-])cc1", "note": "(stereo not drawn)", "melting point": 201}
{"compound": "FC(F)(F)C1(c2cc(Cl)cc(Cl)c2)CC(c2ccc(Cl)c(NNC(=S)NC3CCCCC3)c2)=NO1", "note": "(stereo not drawn)", "melting point": 126}
{"compound": "FC(F)(F)C1(c2cc(Cl)cc(Cl)c2)CC(c2ccc(Cl)c(NNC(=S)Nc3ccccc3)c2)=NO1", "note": "(stereo not drawn)", "melting point": 213}
{"compound": "CC(=O)N(C)N(C)c1cccc(C2=NOC(c3cc(Cl)cc(Cl)c3)(C(F)(F)F)C2)c1", "note": "(stereo not drawn)", "melting point": 151}
{"compound": "Cc1ccc(C2=NOC(c3cc(Cl)cc(Cl)c3)(C(F)(F)F)C2)cc1NNC(=O)OC(C)C", "note": "(stereo not drawn)", "melting point": 71}
